Where two headings read alike, the source gives them in different places.
Legend:
[1] = molecular target: T1, lecithin retinol acyl transferase (LRAT) (Bos taurus, UniProt Q9BGL2); assay: in vitro Microsomal Assay of retinol esterification, LRAT catalyzed (retinyl laurate); type: biochemical, bovine; conditions: solvent blank = 100% ester formation
T1 sequence (Q9BGL2 1-230): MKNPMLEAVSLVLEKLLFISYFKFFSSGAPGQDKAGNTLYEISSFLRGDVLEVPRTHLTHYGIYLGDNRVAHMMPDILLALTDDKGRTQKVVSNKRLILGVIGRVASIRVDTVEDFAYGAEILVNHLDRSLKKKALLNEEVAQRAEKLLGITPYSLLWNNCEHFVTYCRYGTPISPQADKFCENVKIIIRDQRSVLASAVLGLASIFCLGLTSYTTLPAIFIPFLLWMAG
Experimental: (§1) A solution containing 0.1 M sodium phosphate pH 7 buffer, 5 mM dithiothreitol, 2 mg/ml bovine serum albumin, 40 micromolar palmitoyl CoA, 40 micromolar dilauroyl phosphatidyl choline, 10 micromolar retinol and a test compound or solvent blank, was incubated for 1 hour at 37° C. with a microsomal fraction isolated from bovine retinal pigment epithelial cells. After incubation, the reaction was quenched by addition of an equal volume of ethanol, and the retinyl esters formed (retinyl palmitate from the ARAT catalyzed reaction, and retinyl laurate from the LRAT catalyzed reaction) were extracted with hexane.

[2] = system: LRAT and ARAT catalyzed retinol esterification; assay: in vitro Microsomal Assay, retinol esterification overall (statements in words); type: biochemical, bovine
Experimental: as §1

[3] = system: acyl CoA retinol transferase (ARAT); assay: in vitro Microsomal Assay of retinol esterification, ARAT catalyzed (retinyl palmitate); type: biochemical, bovine; conditions: solvent blank = 100% ester formation
Experimental: as §1

[4] = system: procollagen-I synthesis in human dermal fibroblasts; assay: Dot blot assay for procollagen-I in dermal fibroblast conditioned medium; type: cell-based; conditions: 0.01 μM of each active; for Procollagen 1: Table 7, PA/Retinol set, control = 100%
Experimental: (§2) Primary human foreskin fibroblasts at passage 2 (P2) were seeded into 12-well plates at 10000 cells/cm^2 and maintained for 24 hours in an atmosphere of 5% carbon dioxide and 4% oxygen in Dulbeccos Modified Eagles Medium (DMEM) supplemented with 10% foetal calf serum. After this time the cells were washed with serum free DMEM and then incubated in fresh serum free DMEM for a further 60 hours. The fibroblast monolayers were then washed again with serum free DMEM. Test reagents and vehicle controls were added to the cells in triplicate in a final volume of 0.4 ml/well fresh serum free DMEM and incubated for a further 24 hours. This fibroblast conditioned medium was either analysed immediately or snap frozen in liquid nitrogen and stored at −70° C. for future analysis. The cells were then counted and data from the dot-blot analysis subsequently standardised to cell number.
(§3) Samples of conditioned medium from dermal fibroblasts treated with vehicle (as a control) or test reagents were supplemented with 20 mM dithiothreitol (1:10 dilution of 200 mM stock solution) and 0.1% sodium dodecylsulphate (1:100 dilution of 10% stock solution), mixed well and then incubated at 75° C. for 2 minutes. A standard for the assay was generated by serial dilution of neat fibroblast conditioned medium from fibroblasts seeded at 10000 cells/cm^2 in a 175 cm^2 flask and maintained in serum free DMEM as described above.
Assay samples were subsequently applied in triplicate to a prewetted sheet of Immobilon-P transfer membrane using the 96-well Bio-Dot Apparatus from Bio-Rad as described in the manufacturers guidelines. […]
Following this the Immobilon strips were again washed with TBS/Tween 20 (3×5 minutes) before being allowed to dry in air at room temperature. […] Dot intensity was assessed by computer-assisted image analysis using the quantification tools in ImageQuant™, standardised to cell number and the effects of various test reagents on decorin and procollagen-I synthesis were determined relative to a vehicle treated control value of 100 arbitrary units.

[5] = system: decorin synthesis in human dermal fibroblasts; assay: Dot blot assay for decorin in dermal fibroblast conditioned medium; type: cell-based
Experimental: as §2, §3
Assay samples were subsequently applied in triplicate to a prewetted sheet of Immobilon-P transfer membrane using the 96-well Bio-Dot Apparatus from Bio-Rad as described in the manufacturers guidelines. Approximately 200 μl of medium was applied per well. The medium was allowed to filter through the membrane under gravity (30 minutes) after which the membrane was washed twice with PBS (200 μl). These PBS washes were allowed to filter through the membrane under gravity (2×15 minutes). The Bio-Dot apparatus was then attached to a vacuum manifold and a third and final PBS wash carried out under suction. The apparatus was disassembled, the membrane removed and quickly cut as required before being placed in blocking buffer overnight at 4° C. Membranes prepared for decorin analysis were blocked with 3% (w/v) BSA/0.1% (v/v) Tween 20 in PBS, whilst those for procollagen-I analysis were blocked with 5% (w/v) non fat dried milk powder/0.05% Tween 20 in PBS.
Following this the Immobilon strips were again washed with TBS/Tween 20 (3×5 minutes) before being allowed to dry in air at room temperature. The dried membranes were wrapped in cellophane and exposed to a Molecular Dynamics storage phosphor screen for 16-18 hours. At the end of this time the exposed screen was scanned by a phosphorimager (Molecular Dynamics Phosphorimager SF) using ImageQuant™ software. Dot intensity was assessed by computer-assisted image analysis using the quantification tools in ImageQuant™, standardised to cell number and the effects of various test reagents on decorin and procollagen-I synthesis were determined relative to a vehicle treated control value of 100 arbitrary units.

[6] = Table 7, PA/trans Retinoic acid set, 0.01 μM of each active, control = 100%

Row | Compound | % INHIBITION, LRAT ([1]; 100 μM test compound) [%] | % INHIBITION, ARAT ([3]; 100 μM test compound) [%] | further results
1 | CCCCC/C=C\C/C=C\CCCCCCCC(=O)N(CCO)CCO [Linoleamide-DEA (LODEA), Linoleamide-DEA] | 51 |  | % INHIBITION, LRAT ([1]; 10 μM test compound): 11%; retinol esterification inhibition (in words) [2]: potent retinol esterification inhibitors
2 | CC(C)=CCC/C(C)=C/CC/C(C)=C/CC/C(C)=C/CO [Geranyl Geraniol] |  | 81 | % INHIBITION, ARAT ([3]; 10 μM test compound): 38%; retinol esterification inhibition (in words) ([2]; listed as Geranyl geraniol): substantially more potent esterification inhibitor, than farnesol; retinol esterification inhibition (in words) ([2]; listed as geranyl geraniol): inhibit retinol esterification
3 | CC(C)(O)CCCC1=CCC(C=O)CC1 (stereo not shown) [Lyral] |  | 76 | 
4 | CC1=C(/C=C/C(C)=C/C=C/C(C)=C/CO)C(C)(C)CCC1 [Retinol, reference compound] |  |  | Procollagen 1 [4]: 95.0%
5 | Cc1ncc(C[n+]2csc(CCO)c2C)c(N)n1 [thiamine, reference compound] |  | 0 | 
6 | C=C(C)C1CC=C(C)C(=O)C1 (stereo not shown) [carvone, reference compound] |  | 0 | 
7 | Nc1ncnc2nc[nH]c12 [adenine, reference compound] |  | 0 | 
8 | CC12CCC(C1)C(C)(C)C2O (stereo not shown) [fenchyl alcohol, reference compound] |  | 12 | 
9 | Cc1ccc(C(C)C)c(O)c1 [thymol, reference compound] |  | 0 | 
10 | CC(=O)c1cc2c(cc1C)C(C)(C)C(C)CC2(C)C (stereo not shown) [Tonalid] |  | 50 | 
11 | CCC(=O)/C=C/C1C(C)=CCCC1(C)C (stereo not drawn) [Alpha methyl ionone] | 77 | 67 | 
12 | CC(C)=CCCC(C)=CCCC(C)=CCO [Farnesol] |  | 43 | % INHIBITION, ARAT ([3]; 10 μM test compound): 20%; retinol esterification inhibition (in words) [2]: inhibit retinol esterification
13 | Sandalone | 12 | 23 | 
14 | CCCCCCCCCCC/C=C\CCCCC(=O)O [PA, Petroselinic acid] |  |  | Decorin ([5]; Table 6, 0.01 μM, 24 hours, vehicle control = 100): 101.8%; Decorin ([5]; Table 7, PA/Retinyl Linoleate set, 0.01 μM, control = 100%): 107.5%; Decorin [5, 6]: 100.5%; Procollagen-I ([4]; Table 6, 24 hours, vehicle control = 100): 85.1%; Procollagen 1 [4]: 86.0%
15 | Sandanol | 43 | 15 | 
16 | C/C=C/C(=O)C1C(C)C=CCC1(C)C (stereo not shown) [Delta damascone] | 95 |  | % INHIBITION, LRAT ([1]; 10 μM test compound): 64%
17 | CC=CC(=O)C1CCC(C)(C)C=C1C (stereo not shown) [Isodamascone] | 92 | 80 | 
18 | COc1cc(C=O)ccc1O [vanillin, reference compound] |  | 0 | 
19 | C/C=C/C(=O)C1=C(C)CCCC1(C)C [Beta damascone] | 92 |  | % INHIBITION, LRAT ([1]; 10 μM test compound): 52%

Row | Compound | % INHIBITION, LRAT ([1]; 100 μM test compound) [%] | % INHIBITION, ARAT ([3]; 100 μM test compound) [%] | further results
20 | CC1=CC(C)C(CO)C(C)C1 (stereo not shown) [isocyclogeraniol, reference compound] | 16 | 18 | 
21 | CCCCC/C=C\C/C=C\CCCCCCCC(=O)OC/C=C(C)/C=C/C=C(C)/C=C/C1=C(C)CCCC1(C)C [Retinyl Linoleate] |  |  | Decorin ([5]; Table 7, PA/Retinyl Linoleate set, 0.1 μM, control = 100%): 109.1%
22 | O=c1cc[nH]c(=O)[nH]1 [uracil, reference compound] |  | 0 | 
23 | CC(=O)/C(C)=C/C1C(C)=CCCC1(C)C (stereo not shown) [Gamma methyl ionone] | 38 |  | 
24 | C/C=C/C(=O)C1=C(C)C=CCC1(C)C [Damascenone] | 79 |  | % INHIBITION, LRAT ([1]; 10 μM test compound): 29%
25 | CCOC(=O)C1=C(C)C=CCC1(C)C [Ethyl saffranate] | 49 |  | 
26 | O=CC=Cc1ccccc1 [cinnamaldehyde, reference compound] |  | 0 | 
27 | CC1=CCC(CCC(C)CO)C1(C)C (stereo not shown) [Brahmanol] | 75 | 70 | 
28 | CCCCC/C=C\C/C=C\CCCCCCCC(=O)NCCO [Linoleamide-MEA (LOMEA), Linoleamide-MEA] |  |  | Decorin ([5]; Table 6, 0.1 μg/ml, 24 hours, vehicle control = 100): 133.9%; retinol esterification inhibition (in words) [2]: potent retinol esterification inhibitors
29 | Isobutyl ionone | 45 | 8 | 
30 | O=C(NCO)N(CO)C1(CO)C(=O)NC(=O)N1CO (stereo not shown) [diazolidinyl urea, reference compound] |  | 0 | 
31 | CCCCCCCCCCCCC/C=C/[C@@H](O)[C@H](CO)NC(C)=O [Acetyl Sphingosine] | 50 | 62 | % INHIBITION, ARAT ([3]; 10 μM test compound): 19%; % INHIBITION, LRAT ([1]; 10 μM test compound): 10%; retinol esterification inhibition (in words) [2]: potent retinol esterification inhibitors
32 | N[C@@H](Cc1c[nH]c2ccccc12)C(=O)O [tryptophan, reference compound] |  | 0 | 
33 | CC1=C(/C=C/C(C)=C/C=C/C(C)=C/C(=O)O)C(C)(C)CCC1 [trans Retinoic acid, reference compound] |  |  | Decorin [5, 6]: 102.8%
34 | CC(=O)CCC1C(C)=CCCC1(C)C (stereo not drawn) [dihydro alpha ionone, reference compound] | 18 | 13 | 
35 | CCCC(O)CCC1C(C)CCCC1(C)C (stereo not shown) [Timberol] | 33 |  | 
36 | CC12CCC(CC1=O)C2(C)C (stereo not shown) [camphor, reference compound] |  | 0 | 
37 | CC12CCC(CC1)C(C)(C)O2 [eucalyptol, reference compound] |  | 0 | 

— patent publication US6440434B1, “Skin care composition” (Conopco, Inc., priority 1999, dated 2002)
